Common to all, as to assay type: cell-based
Assay [1] addresses T1, hGIPR (Homo sapiens, UniProt P48546).
T1 sequence (P48546 22-466): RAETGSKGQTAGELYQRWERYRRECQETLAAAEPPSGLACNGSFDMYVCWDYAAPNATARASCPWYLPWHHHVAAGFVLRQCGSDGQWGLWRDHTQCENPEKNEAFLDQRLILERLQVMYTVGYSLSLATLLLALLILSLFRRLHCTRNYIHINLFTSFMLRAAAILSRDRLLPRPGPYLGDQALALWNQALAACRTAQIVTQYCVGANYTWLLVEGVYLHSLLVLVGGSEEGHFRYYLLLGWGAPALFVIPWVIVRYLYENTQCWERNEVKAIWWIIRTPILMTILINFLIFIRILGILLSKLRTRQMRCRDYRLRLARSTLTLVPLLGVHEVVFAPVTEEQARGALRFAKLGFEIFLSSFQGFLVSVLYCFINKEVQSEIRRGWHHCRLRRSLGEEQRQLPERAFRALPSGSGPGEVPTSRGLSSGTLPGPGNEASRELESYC
Description: Functional cAMP activity in the presence of 1% HSA. Conditions: read-out: cAMP Rel EC50, hGIPR.

The next assay addresses human GcgR (Homo sapiens, UniProt P47871). Description: Functional cAMP activity in the presence of 1% HSA. Conditions: read-out: cAMP Rel EC50, hGcgR.
Assay [2] has as its target T2, hGLP-1R (Homo sapiens, UniProt P43220). Description: Functional cAMP activation in the presence of 0.1% casein (no HSA). Conditions: geometric mean, read-out: Relative cAMP EC50, hGLP-1R.
In assay [3] the target is T1, hGIPR. The description is as above. The note with it: geometric mean, read-out: Relative cAMP EC50, hGIPR.
The target in another assay is hGcgR (Homo sapiens, UniProt P47871). The description is as above. The note with it: geometric mean, read-out: Relative cAMP EC50, hGcgR.
The target in assay [4] is T2, hGLP-1R. Description: Functional cAMP activity in the presence of 1% HSA. The note with it: read-out: cAMP Rel EC50, hGLP-1R.
Setting [5] is: in the presence of 0.1% casein (no HSA).

Like-named read-outs stand apart in the source and are kept apart here.
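Throughout, for Relative cAMP EC50, hGIPR: intracellular cAMP rise after 30 min at 37 °C read by HTRF against a standard curve, scaled between buffer alone (0%) and top control ligand concentration (100%), four-parameter fit.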
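Throughout, for Relative cAMP EC50, hGLP-1R: intracellular cAMP rise after 30 min at 37 °C read by HTRF, normalized between buffer only (0%) and maximal control ligand (100%), four-parameter variable-slope fit.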
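Throughout, for Relative cAMP EC50, hGcgR: intracellular cAMP rise after 30 min at 37 °C, read by HTRF against a cAMP standard curve, scaled from buffer only (0%) to maximal control ligand response (100%).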

T2 sequence (P43220 24-463): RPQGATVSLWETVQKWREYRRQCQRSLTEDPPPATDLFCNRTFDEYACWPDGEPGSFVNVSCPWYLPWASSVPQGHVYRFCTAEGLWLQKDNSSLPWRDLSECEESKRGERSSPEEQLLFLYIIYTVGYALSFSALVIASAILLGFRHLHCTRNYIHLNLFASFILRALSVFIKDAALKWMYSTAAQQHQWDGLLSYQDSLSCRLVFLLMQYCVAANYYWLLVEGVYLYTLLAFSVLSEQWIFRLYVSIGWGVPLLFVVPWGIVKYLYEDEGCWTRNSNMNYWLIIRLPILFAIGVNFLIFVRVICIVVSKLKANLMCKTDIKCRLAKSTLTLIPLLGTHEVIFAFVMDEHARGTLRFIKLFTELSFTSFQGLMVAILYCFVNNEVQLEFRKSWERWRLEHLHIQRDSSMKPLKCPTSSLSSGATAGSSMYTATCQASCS
Chain of hGcgR (P47871 26-477): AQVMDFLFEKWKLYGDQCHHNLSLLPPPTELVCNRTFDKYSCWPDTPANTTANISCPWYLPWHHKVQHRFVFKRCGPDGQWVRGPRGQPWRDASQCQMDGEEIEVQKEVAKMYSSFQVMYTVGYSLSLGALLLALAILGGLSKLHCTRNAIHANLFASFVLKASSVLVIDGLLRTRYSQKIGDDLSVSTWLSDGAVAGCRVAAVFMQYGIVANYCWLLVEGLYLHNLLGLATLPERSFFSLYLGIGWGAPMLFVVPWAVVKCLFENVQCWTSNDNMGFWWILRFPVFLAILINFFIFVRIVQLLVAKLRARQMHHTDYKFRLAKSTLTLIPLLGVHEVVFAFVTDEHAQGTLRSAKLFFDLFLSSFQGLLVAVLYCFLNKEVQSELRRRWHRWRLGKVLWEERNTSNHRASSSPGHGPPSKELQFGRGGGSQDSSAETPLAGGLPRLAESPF
Chain of human GcgR (P47871 26-477): as above

Turning to `CC[C@H](C)[C@H](NC(=O)[C@H](Cc1ccccc1)NC(=O)[C@H](C)NC(=O)[C@](C)(Cc1ccncc1)NC(=O)[C@H](CCC(N)=O)NC(=O)[C@H](C)NC(=O)[C@H](CCCCNC(=O)CC[C@H](NC(=O)CC[C@H](NC(=O)CCCCCCCCCCCCCCCCC(=O)O)C(=O)O)C(=O)O)NC(=O)[C@H](CCCCN)NC(=O)[C@H](CC(=O)O)NC(=O)[C@H](CC(C)C)NC(=O)[C@](C)(CC(C)C)NC(=O)[C@H](CCC(N)=O)NC(=O)[C@H](CO)NC(=O)[C@H](Cc1ccncc1)NC(=O)[C@H](CC(=O)O)NC(=O)[C@H](CO)NC(=O)[C@@H](NC(=O)[C@H](Cc1ccccc1)NC(=O)[C@@H](NC(=O)CNC(=O)[C@H](CCC(N)=O)NC(=O)C(C)(C)NC(=O)[C@@H](N)Cc1ccc(O)cc1)[C@@H](C)O)[C@@H](C)O)C(=O)N[C@@H](CCC(=O)O)C(=O)N[C@@H](Cc1ccc(O)cc1)C(=O)N[C@@H](CC(C)C)C(=O)N[C@H](C(=O)N[C@@H](CCC(=O)O)C(=O)N[C@H](C)C(=O)NCC(=O)N1CCC[C@H]1C(=O)N[C@@H](CO)C(=O)N[C@@H](CO)C(=O)NCC(=O)N[C@@H](C)C(=O)N1CCC[C@H]1C(=O)N1CCC[C@H]1C(=O)N1CCC[C@H]1C(=O)N[C@@H](CO)C(=O)NCC(=O)N[C@@H](CO)C(=O)N[C@@H](CCC(=O)O)C(N)=O)[C@@H](C)CC` [Example 1025], the half-maximal effective concentration (EC50) (usually the midpoint of the concentration-response curve) on hGIPR [1] was 31.5 nM; at human GcgR, 625 nM; on hGLP-1R [2] (setting [5]), 2.45 nM; at hGIPR [3] (setting [5]), 0.18 nM; at hGcgR (setting [5]) it was 3.22 nM; on hGLP-1R [4] it was 352 nM.

As for `CC[C@H](C)[C@H](NC(=O)[C@H](CC(C)C)NC(=O)[C@](C)(Cc1ccc(O)cc1)NC(=O)[C@H](CCC(=O)O)NC(=O)[C@@H](NC(=O)[C@H](Cc1ccccc1)NC(=O)[C@H](CCC(N)=O)NC(=O)[C@](C)(Cc1ccncc1)NC(=O)[C@H](CCC(N)=O)NC(=O)[C@H](C)NC(=O)[C@H](CCCCNC(=O)COCCOCCNC(=O)CC[C@H](NC(=O)CCCCCCCCCCCCCCCCC(=O)O)C(=O)O)NC(=O)[C@H](CCCN)NC(=O)[C@H](CC(=O)O)NC(=O)[C@H](CC(C)C)NC(=O)[C@](C)(CC(C)C)NC(=O)[C@H](CCC(N)=O)NC(=O)[C@H](CO)NC(=O)[C@H](Cc1ccncc1)NC(=O)[C@H](CC(=O)O)NC(=O)[C@H](CO)NC(=O)[C@@H](NC(=O)[C@H](Cc1ccccc1)NC(=O)[C@@H](NC(=O)CNC(=O)[C@H](CCC(N)=O)NC(=O)C(C)(C)NC(=O)[C@@H](N)Cc1ccc(O)cc1)[C@@H](C)O)[C@@H](C)O)[C@@H](C)CC)C(=O)N[C@@H](CCC(=O)O)C(=O)NC(C)(C)C(=O)NCC(=O)N1CCC[C@H]1C(=O)N[C@@H](CO)C(=O)N[C@@H](CO)C(=O)NCC(=O)N[C@@H](C)C(=O)N1CCC[C@H]1C(=O)N1CCC[C@H]1C(=O)N1CCC[C@H]1C(=O)N[C@@H](CO)C(=O)NCC(=O)N[C@@H](CO)C(=O)N[C@@H](CCC(=O)O)C(=O)N[C@@H](CCC(=O)O)C(N)=O` [Example 1109], the EC50 at hGIPR [1] worked out at 20.2 nM; on human GcgR, 510 nM; on hGLP-1R [2] (setting [5]), 2.3 nM; at hGIPR [3] (setting [5]), 0.0626 nM; at hGcgR (setting [5]), 10.8 nM; at hGLP-1R [4] it was 102 nM.

In the case of `CC[C@H](C)[C@H](NC(=O)[C@H](CC(C)C)NC(=O)[C@](C)(Cc1ccc(O)cc1)NC(=O)[C@H](CCC(=O)O)NC(=O)[C@@H](NC(=O)[C@H](Cc1ccccc1)NC(=O)[C@H](CCC(N)=O)NC(=O)[C@](C)(Cc1ccncc1)NC(=O)[C@H](CCC(N)=O)NC(=O)[C@H](C)NC(=O)[C@H](CCCCNC(=O)COCCOCCNC(=O)CC[C@H](NC(=O)CCCCCCCCCCCCCCCCC(=O)O)C(=O)O)NC(=O)[C@H](CCCN)NC(=O)[C@H](CC(=O)O)NC(=O)[C@H](CC(C)C)NC(=O)[C@](C)(CC(C)C)NC(=O)[C@H](CCC(N)=O)NC(=O)[C@H](CO)NC(=O)[C@H](Cc1ccncc1)NC(=O)[C@H](CC(=O)O)NC(=O)[C@H](CO)NC(=O)[C@@H](NC(=O)[C@H](Cc1ccccc1)NC(=O)[C@@H](NC(=O)CNC(=O)[C@H](CCC(N)=O)NC(=O)C(C)(C)NC(=O)[C@@H](N)Cc1ccc(O)cc1)[C@@H](C)O)[C@@H](C)O)[C@@H](C)CC)C(=O)N[C@@H](C)C(=O)NC(C)(C)C(=O)NCC(=O)N1CCC[C@H]1C(=O)N[C@@H](CO)C(=O)N[C@@H](CO)C(=O)NCC(=O)N[C@@H](C)C(=O)N1CCC[C@H]1C(=O)N1CCC[C@H]1C(=O)N1CCC[C@H]1C(=O)N[C@@H](CO)C(=O)NCC(=O)N[C@@H](CO)C(=O)N[C@@H](CCC(=O)O)C(=O)N[C@@H](CCC(=O)O)C(N)=O` [Example 1111], the EC50 is 3.66 nM on hGIPR [1]; 299 nM on human GcgR; 1.14 nM on hGLP-1R [2] (setting [5]); 0.0356 nM on hGIPR [3] (setting [5]); 5.28 nM at hGcgR (setting [5]); 51.3 nM at hGLP-1R [4].

Regarding `CC[C@H](C)[C@H](NC(=O)[C@H](CC(C)C)NC(=O)[C@](C)(Cc1ccc(O)cc1)NC(=O)[C@@H](CCC(=O)O)NC(=O)[C@@H](NC(=O)[C@H](Cc1ccccc1)NC(=O)[C@H](CCC(=O)O)NC(=O)[C@](C)(Cc1ccncc1)NC(=O)[C@H](CCC(N)=O)NC(=O)[C@H](C)NC(=O)[C@H](CCCCNC(=O)COCCOCCNC(=O)COCCOCCNC(=O)CC[C@H](NC(=O)CCCCCCCCCCCCCCCCC(=O)O)C(=O)O)NC(=O)[C@H](CCCN)NC(=O)[C@H](CC(=O)O)NC(=O)[C@H](CC(C)C)NC(=O)[C@](C)(CC(C)C)NC(=O)[C@@H](NC(=O)[C@](C)(CO)NC(=O)[C@H](Cc1ccncc1)NC(=O)[C@H](CC(=O)O)NC(=O)[C@H](CO)NC(=O)[C@@H](NC(=O)[C@](C)(Cc1ccccc1F)NC(=O)[C@@H](NC(=O)CNC(=O)[C@H](CCC(N)=O)NC(=O)C(C)(C)NC(=O)[C@@H](N)Cc1ccc(O)cc1)[C@@H](C)O)[C@@H](C)O)[C@@H](C)CC)[C@@H](C)CC)C(=O)N[C@@H](CCC(=O)O)C(=O)NCC(=O)NCC(=O)N1CCC[C@H]1C(=O)N[C@@H](CO)C(=O)N[C@@H](CO)C(=O)NCC(=O)N[C@@H](C)C(=O)N1CCC[C@H]1C(=O)N1CCC[C@H]1C(=O)N1CCC[C@H]1C(=O)N[C@@H](CO)C(=O)NCC(=O)N[C@@H](CO)C(N)=O` [Example 1207], the EC50 on hGIPR [1] amounted to 0.633 nM; on human GcgR it was 470 nM; at hGLP-1R [2] (0.1% casein, no HSA), 0.299 nM; on hGIPR [3] (0.1% casein, no HSA), 0.00647 nM; on hGcgR (0.1% casein, no HSA), 7.71 nM; at hGLP-1R [4], 39.8 nM.

Values taken from patent US20240270821A1, “GIP/GLP1/GCG TRI-RECEPTOR AGONISTS AND USES THEREOF” (priority 2023, published 2024).
